According to patent publication US10745416B2, “Macrocyclic compounds for treating disease” (Turning Point Therapeutics, Inc., priority 2017, dated 2020):

What was measured:
[1] = target: T1, RET (R813Q) (Homo sapiens, UniProt P07949, R813Q); test: Biochemical kinase assay (Reaction Biology, 33P ATP); details: 10 μM ATP
T1 construct: purchased Reaction Biology Corporation (assay run at the CRO)
Protocol: (§1) The biochemical kinase assay was performed at Reaction Biology Corporation (www.reactionbiology.com, Malvern, Pa.) following the procedures described in the reference (Anastassiadis T, et al Nat Biotechnol. 2011, 29, 1039). Specific kinase/substrate pairs along with required cofactors were prepared in reaction buffer; 20 mM Hepes pH 7.5, 10 mM MgCl2, 1 mM EGTA, 0.02% Brij35, 0.02 mg/ml BSA, 0.1 mM Na3VO4, 2 mM DTIT, 1% DMSO. Compounds were delivered into the reaction, followed ˜20 minutes later by addition of a mixture of ATP (Sigma, St. Louis Mo.) and ^33P ATP (Perkin Elmer, Waltham Mass.) to a final concentration of 10 μM. Reactions were carried out at room temperature for 120 min, followed by spotting of the reactions onto P81 ion exchange filter paper (Whatman Inc., Piscataway, N.J.). Unbound phosphate was removed by extensive washing of filters in 0.75% phosphoric acid. […] IC50 values and curve fits were obtained using Prism (GraphPad Software).

[2] = target: T2, RET (V778I) (Homo sapiens, UniProt P07949, V778I); test: as above; details: 10 μM ATP
T2 construct: purchased Reaction Biology Corporation (assay run at the CRO)
Protocol: as §1

[3] = target: T3, RET (Y806H) (Homo sapiens, UniProt P07949, Y806H); test: as above; details: 10 μM ATP
T3 construct: purchased Reaction Biology Corporation (assay run at the CRO)
Protocol: as §1

[4] = target: T4, RET (S904A) (Homo sapiens, UniProt P07949, S904A); test: as above; details: 10 μM ATP
T4 construct: purchased Reaction Biology Corporation (assay run at the CRO)
Protocol: as §1

[5] = target: T5, LYN (Homo sapiens, UniProt P07948); test: as above; details: 10 μM ATP
T5 construct: purchased Reaction Biology Corporation (assay run at the CRO)
Protocol: as §1

[6] = target: T6, RET (V804L) (Homo sapiens, UniProt P07949, V804L); test: as above; details: 10 μM ATP
T6 construct: purchased Reaction Biology Corporation (assay run at the CRO)
Protocol: as §1

[7] = target: T7, FYN (Homo sapiens, UniProt P06241); test: as above; details: 10 μM ATP
T7 construct: purchased Reaction Biology Corporation (assay run at the CRO)
Protocol: as §1

[8] = target: T8, Src (Homo sapiens, UniProt P12931); test: as above; details: 10 μM ATP
T8 construct: purchased Reaction Biology Corporation (assay run at the CRO)
Protocol: as §1

[9] = target: T9, RET-NCOA4 (PTC3) (Homo sapiens, UniProt P07949); test: as above; details: 10 μM ATP
T9 construct: fusion transcripts composed of the 3′ end of RET kinase domain and the 5′ end of separate partner genes; NCOA4 N-terminal part (fusion partner); purchased Reaction Biology Corporation (assay run at the CRO)
Protocol: as §1

[10] = target: T10, RET (M918T) (Homo sapiens, UniProt P07949, M918T); test: as above; details: 10 μM ATP
T10 construct: purchased Reaction Biology Corporation (assay run at the CRO)
Protocol: as §1

[11] = target: T11, HCK (Homo sapiens, UniProt P08631); test: as above; details: 10 μM ATP
T11 construct: purchased Reaction Biology Corporation (assay run at the CRO)
Protocol: as §1

[12] = target: T12, RET-CCDC6 (PTC1) (Homo sapiens, UniProt P07949); test: as above; details: 10 μM ATP
T12 construct: fusion transcripts composed of the 3′ end of RET kinase domain and the 5′ end of separate partner genes; CCDC6 N-terminal part (fusion partner); purchased Reaction Biology Corporation (assay run at the CRO); the other entry of the earlier key: CCDC6 (Q16204, Coiled-coil domain-containing protein 6)
Protocol: as §1

[13] = test system: KM12 cell (TPM3-TRKA); test: Cell proliferation assay (CellTiter-Glo, 72 hours); assay type: cell-based, human; details: Homo sapiens, KM12, anti-cell proliferation
In short: (§2)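 Cells used were KG-1 (AML), TT medullary thyroid carcinoma ([…]) and KM12 colon (TPM3-TRKA). Viability was read by CellTiter-Glo ATP luminescence, and IC50 derived by curve fitting.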

[14] = test system: KG-1; test: Cell proliferation assay (CellTiter-Glo, 72 hours); assay type: cell-based, human; details: Homo sapiens, KG-1, anti-cell proliferation
In short: as §2

T7 sequence (P06241 whole entry): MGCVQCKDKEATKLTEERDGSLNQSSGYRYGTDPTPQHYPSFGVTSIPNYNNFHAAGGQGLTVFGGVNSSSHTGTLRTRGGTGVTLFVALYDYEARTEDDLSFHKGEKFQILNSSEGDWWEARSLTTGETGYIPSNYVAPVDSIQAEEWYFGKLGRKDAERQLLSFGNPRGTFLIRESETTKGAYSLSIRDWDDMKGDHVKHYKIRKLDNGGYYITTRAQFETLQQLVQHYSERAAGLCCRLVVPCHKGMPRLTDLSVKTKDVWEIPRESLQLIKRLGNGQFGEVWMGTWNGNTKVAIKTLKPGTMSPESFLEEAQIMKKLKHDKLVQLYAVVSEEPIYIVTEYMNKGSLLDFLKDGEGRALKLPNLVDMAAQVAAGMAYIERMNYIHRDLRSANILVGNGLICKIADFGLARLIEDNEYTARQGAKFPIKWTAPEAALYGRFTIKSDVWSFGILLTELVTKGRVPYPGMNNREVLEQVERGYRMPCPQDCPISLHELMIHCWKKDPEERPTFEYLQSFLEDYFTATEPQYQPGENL
T10 sequence (P07949 29-1114 M918T): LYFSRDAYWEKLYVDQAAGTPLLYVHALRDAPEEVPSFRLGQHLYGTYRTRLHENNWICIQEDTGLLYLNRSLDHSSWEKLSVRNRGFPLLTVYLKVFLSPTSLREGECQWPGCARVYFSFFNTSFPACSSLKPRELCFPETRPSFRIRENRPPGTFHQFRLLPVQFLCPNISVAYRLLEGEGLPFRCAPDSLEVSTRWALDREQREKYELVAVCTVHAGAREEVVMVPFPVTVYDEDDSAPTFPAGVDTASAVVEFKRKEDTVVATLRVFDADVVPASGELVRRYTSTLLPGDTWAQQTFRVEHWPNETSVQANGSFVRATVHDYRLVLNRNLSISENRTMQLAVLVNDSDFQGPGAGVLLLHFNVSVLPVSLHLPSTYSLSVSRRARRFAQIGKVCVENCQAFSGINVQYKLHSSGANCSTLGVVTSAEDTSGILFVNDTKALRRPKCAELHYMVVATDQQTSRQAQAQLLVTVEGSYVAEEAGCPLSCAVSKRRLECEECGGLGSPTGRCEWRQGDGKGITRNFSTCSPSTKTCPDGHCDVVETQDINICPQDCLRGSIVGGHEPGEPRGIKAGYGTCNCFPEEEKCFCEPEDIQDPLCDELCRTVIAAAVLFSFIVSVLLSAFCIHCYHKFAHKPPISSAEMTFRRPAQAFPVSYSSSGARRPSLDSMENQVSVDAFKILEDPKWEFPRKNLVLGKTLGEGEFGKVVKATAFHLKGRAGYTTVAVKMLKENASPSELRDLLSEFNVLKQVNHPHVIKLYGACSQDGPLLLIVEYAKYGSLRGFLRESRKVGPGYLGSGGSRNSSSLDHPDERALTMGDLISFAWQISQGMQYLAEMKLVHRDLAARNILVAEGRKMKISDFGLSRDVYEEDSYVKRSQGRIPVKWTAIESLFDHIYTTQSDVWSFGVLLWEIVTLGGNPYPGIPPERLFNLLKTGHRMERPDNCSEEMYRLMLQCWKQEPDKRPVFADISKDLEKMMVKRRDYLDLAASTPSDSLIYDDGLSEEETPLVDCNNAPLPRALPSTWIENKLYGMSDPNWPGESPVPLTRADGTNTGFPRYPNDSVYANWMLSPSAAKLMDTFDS
T2 sequence (P07949 29-1114 V778I): as the sequence (P07949 29-1114 M918T) above, with V750I, T890M counted along it
T3 sequence (P07949 29-1114 Y806H): as the sequence (P07949 29-1114 M918T) above, with Y778H, T890M counted along it
T4 sequence (P07949 29-1114 S904A): as the sequence (P07949 29-1114 M918T) above, with S876A, T890M counted along it
T5 sequence (P07948 whole entry): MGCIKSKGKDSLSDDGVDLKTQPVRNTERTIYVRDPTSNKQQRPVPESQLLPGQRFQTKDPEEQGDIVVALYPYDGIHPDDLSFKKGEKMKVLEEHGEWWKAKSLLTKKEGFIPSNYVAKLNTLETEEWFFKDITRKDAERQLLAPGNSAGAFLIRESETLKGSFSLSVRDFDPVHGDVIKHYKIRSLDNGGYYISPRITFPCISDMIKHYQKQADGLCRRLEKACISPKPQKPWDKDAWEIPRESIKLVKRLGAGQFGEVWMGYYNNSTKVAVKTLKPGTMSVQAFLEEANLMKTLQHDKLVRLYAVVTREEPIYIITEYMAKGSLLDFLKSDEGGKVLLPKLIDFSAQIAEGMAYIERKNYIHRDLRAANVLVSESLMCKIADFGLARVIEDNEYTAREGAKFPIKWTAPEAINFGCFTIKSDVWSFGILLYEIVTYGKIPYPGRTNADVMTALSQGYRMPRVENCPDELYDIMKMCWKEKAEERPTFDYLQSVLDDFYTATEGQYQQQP
T11 sequence (P08631 whole entry): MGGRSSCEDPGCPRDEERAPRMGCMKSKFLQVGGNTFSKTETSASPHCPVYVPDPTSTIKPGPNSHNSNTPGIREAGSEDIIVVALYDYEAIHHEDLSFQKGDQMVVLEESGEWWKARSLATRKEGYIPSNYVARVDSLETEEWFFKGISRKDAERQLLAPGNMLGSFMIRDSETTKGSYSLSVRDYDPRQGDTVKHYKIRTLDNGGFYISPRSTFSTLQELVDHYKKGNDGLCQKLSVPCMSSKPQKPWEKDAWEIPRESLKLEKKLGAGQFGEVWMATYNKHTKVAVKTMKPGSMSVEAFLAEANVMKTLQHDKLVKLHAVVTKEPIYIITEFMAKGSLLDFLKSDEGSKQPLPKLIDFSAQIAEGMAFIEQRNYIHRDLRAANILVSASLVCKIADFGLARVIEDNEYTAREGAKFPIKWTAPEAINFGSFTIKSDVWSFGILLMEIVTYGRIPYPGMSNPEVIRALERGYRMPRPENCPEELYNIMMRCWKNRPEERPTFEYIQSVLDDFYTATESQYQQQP
T6 sequence (P07949 29-1114 V804L): as the sequence (P07949 29-1114 M918T) above, with V776L, T890M counted along it
T8 sequence (P12931 whole entry): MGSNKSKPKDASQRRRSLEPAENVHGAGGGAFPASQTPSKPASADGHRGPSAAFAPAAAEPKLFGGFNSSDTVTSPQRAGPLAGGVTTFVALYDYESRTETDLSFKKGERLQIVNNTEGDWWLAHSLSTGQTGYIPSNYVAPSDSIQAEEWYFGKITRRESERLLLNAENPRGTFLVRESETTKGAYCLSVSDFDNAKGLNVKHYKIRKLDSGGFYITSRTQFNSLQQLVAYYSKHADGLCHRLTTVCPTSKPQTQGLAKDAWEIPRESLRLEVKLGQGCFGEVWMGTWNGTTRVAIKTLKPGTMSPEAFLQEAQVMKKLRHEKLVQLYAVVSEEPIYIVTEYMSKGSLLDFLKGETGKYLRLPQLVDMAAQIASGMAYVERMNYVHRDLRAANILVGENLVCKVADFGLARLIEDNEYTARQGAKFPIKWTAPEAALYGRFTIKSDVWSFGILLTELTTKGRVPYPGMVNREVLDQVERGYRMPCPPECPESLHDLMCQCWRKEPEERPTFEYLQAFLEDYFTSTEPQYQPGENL
T9 sequence (P07949 with tags, fused parts or gaps): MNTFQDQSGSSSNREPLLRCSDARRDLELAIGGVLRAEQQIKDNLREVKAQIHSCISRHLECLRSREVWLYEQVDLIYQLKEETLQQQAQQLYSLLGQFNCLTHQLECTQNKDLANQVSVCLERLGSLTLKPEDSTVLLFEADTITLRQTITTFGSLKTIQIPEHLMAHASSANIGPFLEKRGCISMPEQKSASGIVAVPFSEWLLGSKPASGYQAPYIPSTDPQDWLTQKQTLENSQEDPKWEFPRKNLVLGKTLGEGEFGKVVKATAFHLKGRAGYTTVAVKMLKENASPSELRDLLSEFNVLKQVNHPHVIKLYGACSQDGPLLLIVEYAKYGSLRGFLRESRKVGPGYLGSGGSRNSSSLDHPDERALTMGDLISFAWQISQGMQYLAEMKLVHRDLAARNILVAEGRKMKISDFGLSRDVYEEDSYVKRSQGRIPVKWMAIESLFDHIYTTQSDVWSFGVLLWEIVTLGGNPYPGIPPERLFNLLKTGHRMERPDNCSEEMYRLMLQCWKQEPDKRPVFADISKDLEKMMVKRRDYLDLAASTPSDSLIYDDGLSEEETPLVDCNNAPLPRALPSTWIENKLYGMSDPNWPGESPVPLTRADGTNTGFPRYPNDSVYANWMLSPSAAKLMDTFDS
T1 sequence (P07949 29-1114 R813Q): as the sequence (P07949 29-1114 M918T) above, with R785Q, T890M counted along it
T12 sequence (P07949 with tags, fused parts or gaps): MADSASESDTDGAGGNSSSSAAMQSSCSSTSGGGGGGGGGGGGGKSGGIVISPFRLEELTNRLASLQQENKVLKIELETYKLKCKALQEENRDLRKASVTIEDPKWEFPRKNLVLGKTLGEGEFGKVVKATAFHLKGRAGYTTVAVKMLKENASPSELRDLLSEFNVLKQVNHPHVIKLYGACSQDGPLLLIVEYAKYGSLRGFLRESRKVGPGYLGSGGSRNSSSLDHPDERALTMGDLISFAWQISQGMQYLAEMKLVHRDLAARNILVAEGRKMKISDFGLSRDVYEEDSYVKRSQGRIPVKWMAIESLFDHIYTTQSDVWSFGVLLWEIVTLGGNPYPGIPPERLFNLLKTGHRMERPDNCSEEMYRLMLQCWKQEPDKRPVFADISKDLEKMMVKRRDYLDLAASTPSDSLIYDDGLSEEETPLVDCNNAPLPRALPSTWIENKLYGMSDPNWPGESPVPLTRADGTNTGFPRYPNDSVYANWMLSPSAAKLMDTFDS

IC50 [1] | IC50 [2] | IC50 [3] | IC50 [4] | IC50 [5] | IC50 [6] | IC50 [7] | IC50 [8] | IC50 [9] | IC50 [10] | IC50 [11] | IC50 [12] | SMILES | IC50 [13] | IC50 [14]
2.46 nM | 0.233 nM | 0.261 nM | 1.22 nM | 2.03 nM | 2350 nM | 1.94 nM | 1.46 nM | 0.691 nM | 1.42 nM | 2.71 nM | 1.97 nM | C[C@H]1CNC(=O)c2cnn3cc4c(nc23)N(Cc2cc(F)cnc2O1)[C@@H]1CCC[C@@H]1O4 [Compound 5, (3aR,11S,20aS)-7-fluoro-11-methyl-2,3,3a,12,13,20a-hexahydro-1H,5H-17-19-(metheno)cyclopenta[5,6][1,4] oxazino[3,4-i]pyrazolo[4,3-f]pyrido[3,2-l][1,4,8,10]oxatriazacyclotridecin-14(11H)-one] | 6.9 nM | 26.8 nM
0.341 nM | < 0.0508 nM | 0.385 nM | 0.159 nM | 1.97 nM | 10 nM | 1.81 nM | 0.875 nM | 0.0635 nM | 0.114 nM | 1.95 nM | 0.0893 nM | C[C@H]1CNC(=O)c2cnn3cc4c(nc23)N(Cc2cc(F)ccc2O1)[C@@H]1CCC[C@@H]1O4 [Compound 1, (3aR,11S,20aS)-7-fluoro-11-methyl-2,3,3a,12,13,20a-hexahydro-1H,5H-17-19-(metheno)cyclopenta[5,6][1,4] oxazino[3,4-i]pyrazolo[4,3-f][1,4,8,10]benzoxatriacyclotridecin-14(11H)-one] | 3 nM | 131 nM
